Consider 31 molecules from US12071404B2, “Aza (indole)-, benzothiophene-, and benzofuran-3-sulfonamides” (UCB Pharma GmbH, priority 2016, dated 2024).

Assay [1] addresses T1, GPR17 (Homo sapiens, UniProt Q13304). In words: Calcium mobilization functional assay (GPR17 Ca2+ assay). More on the design: host or cells: Flp-In T-REx CHO. As to conditions: CHO hGPR17 cells, inhibition of 50 nM MDL29,951, Calcium 5 dye, FLIPR; read-out: Ca2+ assay pIC50 (converted). It counts as cell-based. The gist of the method: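 Flp-In T-REx CHO cells stably expressing human GPR17, doxycycline-induced (1 μg/mL, 16-20 h), loaded 60 min with Calcium 5 dye. Inhibition by varying test-compound concentrations of the 50 nM MDL29,951 agonist response was read by fluorescence over time at room temperature. pIC50 came from 4-parameter logistic fitting.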
(In general: A change in cytosolic calcium serves as a functional read-out for many receptors and channels.)

Assay [2] concerns the target T1, GPR17. In words: cAMP accumulation functional assay (HTRF, Schild analysis). The format is cell-based. More on the design: host or cells: Flp-In T-REx CHO. The following applies: CHO hGPR17 cells, Schild analysis vs MDL29,951, 5 μM forskolin, read-out: cAMP assay pA2 (converted). The procedure, abridged: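 CHO Flp-In T-REx cells with doxycycline-induced human GPR17 were preincubated 30 min at room temperature in HBSS-HEPES pH 7.4 with antagonist. cAMP was then measured by HTRF after 60 min. MDL29,951 pEC50 shifts gave dose ratios, and Schild analysis gave pA2.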
For orientation: Changes in cAMP serve as a functional read-out for many G protein-coupled receptors.

Bounds are passed on as bounds.

T1 sequence (Q13304 whole entry): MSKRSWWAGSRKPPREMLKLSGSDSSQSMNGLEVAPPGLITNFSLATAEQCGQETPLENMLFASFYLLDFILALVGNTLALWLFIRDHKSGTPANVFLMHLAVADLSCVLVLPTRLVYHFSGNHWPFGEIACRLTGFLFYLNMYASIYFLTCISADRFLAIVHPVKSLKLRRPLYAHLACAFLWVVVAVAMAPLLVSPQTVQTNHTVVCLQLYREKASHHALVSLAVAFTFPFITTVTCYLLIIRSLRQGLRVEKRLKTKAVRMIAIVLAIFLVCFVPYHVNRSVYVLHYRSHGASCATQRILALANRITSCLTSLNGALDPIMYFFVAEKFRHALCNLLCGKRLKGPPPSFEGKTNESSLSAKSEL

For the molecule `CC1OC(=O)c2cc(NS(=O)(=O)c3c[nH]c4cc(Cl)ccc34)c(F)cc21` (centres unmarked) [Compound I-327, 6-chloro-N-(6-fluoro-1-methyl-3-oxo-1,3-dihydro-2-benzofuran-5-yl)-1H-indole-3-sulfonamide], at GPR17 [1], the IC50 was less than 3.16 nM. Moreover, the Kb at GPR17 [2] is less than 3.16 nM.
Regarding `COc1nc(NS(=O)(=O)c2c[nH]c3c2ccc2cccnc23)c(F)cc1Cl` [Compound I-328, N-(5-chloro-3-fluoro-6-methoxypyridin-2-yl)-1H-pyrrolo[3,2-h]quinoline-3-sulfonamide], the IC50 at GPR17 [1] was less than 3.16 nM. For the same molecule, the Kb at GPR17 [2] is less than 3.16 nM.
Regarding `COc1nc(NS(=O)(=O)c2c[nH]c3c2ccc2ccccc23)c(F)cc1Cl` [Compound I-329, N-(5-chloro-3-fluoro-6-methoxypyridin-2-yl)-1H-benzo[g]indole-3-sulfonamide], the IC50 on GPR17 [1] was less than 3.16 nM. Besides, the Kb at GPR17 [2] was less than 3.16 nM.
Take `CCOC(=O)/C=C/c1cc(F)c(NS(=O)(=O)c2c[nH]c3cc(Cl)ccc23)nc1F` [Compound I-330, Ethyl (2E)-3-(6-{[(6-chloro-1H-indol-3-yl)sulfonyl]amino}-2,5-difluoropyridin-3-yl)prop-2-enoate]: the IC50 on GPR17 [1] is 3.16 to 31.6 nM. The Kb at GPR17 [2] is less than 3.16 nM.
The corresponding values for `CCOC(=O)CCc1cc(F)c(NS(=O)(=O)c2c[nH]c3cc(Cl)ccc23)nc1F` [Compound I-331, ethyl 3-(6-{[(6-chloro-1H-indol-3-yl)sulfonyl]amino}-2,5-difluoropyridin-3-yl)propanoate] are less than 3.16 nM and less than 3.16 nM.
The corresponding values for `CCO/C=C/c1cc(F)c(NS(=O)(=O)c2c[nH]c3cc(Cl)ccc23)nc1F` [Compound I-332, 6-chloro-N-{5-[(E)-2-ethoxyethenyl]-3,6-difluoropyridin-2-yl}-1H-indole-3-sulfonamide] are 3.16 to 31.6 nM and less than 3.16 nM.
In the same order, the values of `CCOCCc1cc(F)c(NS(=O)(=O)c2c[nH]c3cc(Cl)ccc23)nc1F` [Compound I-333, 6-chloro-N-[5-(2-ethoxyethyl)-3,6-difluoropyridin-2-yl]-1H-indole-3-sulfonamide] are less than 3.16 nM and less than 3.16 nM.
On to `N#Cc1ccc(NS(=O)(=O)c2c[nH]c3cc(N=[N+]=[N-])ccc23)c(F)c1` [Compound I-335, 6-azido-N-(4-cyano-2-fluorophenyl)-1H-indole-3-sulfonamide], for which the IC50 at GPR17 [1] is 3.16 to 31.6 nM. In addition, the Kb on GPR17 [2] is 3.16 to 31.6 nM.
`COc1nc(NS(=O)(=O)c2c[nH]c3nc(Cl)ccc23)c(F)cc1Cl` [Compound I-336, 6-chloro-N-(5-chloro-3-fluoro-6-methoxypyridin-2-yl)-1H-pyrrolo[2,3-b]pyridine-3-sulfonamide]: the IC50 on GPR17 [1] was less than 3.16 nM. Also, the Kb at GPR17 [2] is 3.16 to 31.6 nM.
For the molecule `C=Cc1cc(F)c(NS(=O)(=O)c2c[nH]c3cc(Cl)ccc23)nc1F` [Compound I-337, 6-chloro-N-(5-ethenyl-3,6-difluoropyridin-2-yl)-1H-indole-3-sulfonamide], at GPR17 [1], the IC50 is 3.16 to 31.6 nM. The Kb on GPR17 [2] was less than 3.16 nM.
The corresponding values for `CCc1cc(F)c(NS(=O)(=O)c2c[nH]c3cc(Cl)ccc23)nc1F` [Compound I-338, 6-chloro-N-(5-ethyl-3,6-difluoropyridin-2-yl)-1H-indole-3-sulfonamide] are less than 3.16 nM and less than 3.16 nM.
The corresponding values for `COc1nc(NS(=O)(=O)c2c[nH]c3cc(Cl)c(F)cc23)c(F)cc1Cl` [Compound I-339, 6-chloro-N-(5-chloro-3-fluoro-6-methoxypyridin-2-yl)-5-fluoro-1H-indole-3-sulfonamide] are less than 3.16 nM and 3.16 to 31.6 nM.
Turning to `COc1nc(NS(=O)(=O)c2c[nH]c3c(F)c(Cl)c(F)cc23)c(F)cc1Cl` [Compound I-340, 6-chloro-N-(5-chloro-3-fluoro-6-methoxypyridin-2-yl)-5,7-difluoro-1H-indole-3-sulfonamide], the IC50 on GPR17 [1] is 3.16 to 31.6 nM. Further, at GPR17 [2], the Kb is 3.16 to 31.6 nM.
As for `N#Cc1ccc(NS(=O)(=O)c2c[nH]c3c(Br)c(Cl)ccc23)c(F)c1` [Compound I-341, 7-bromo-6-chloro-N-(4-cyano-2-fluorophenyl)-1H-indole-3-sulfonamide], the IC50 on GPR17 [1] is less than 3.16 nM. Also, the Kb on GPR17 [2] is less than 3.16 nM.
In the case of `N#CCOc1cc(F)c(NS(=O)(=O)c2coc3cc(Cl)ccc23)cc1F` [Compound I-342, 6-chloro-N-[4-(cyanomethoxy)-2,5-difluorophenyl]-1-benzofuran-3-sulfonamide], the IC50 on GPR17 [1] is 3.16 to 31.6 nM. Further, on GPR17 [2], the Kb was 3.16 to 31.6 nM.
As to `N#Cc1ccc(NS(=O)(=O)c2c[nH]c3cc(Cl)c(Br)cc23)c(F)c1` [Compound I-343, 5-bromo-6-chloro-N-(4-cyano-2-fluorophenyl)-1H-indole-3-sulfonamide], the IC50 on GPR17 [1] is 3.16 to 31.6 nM. The Kb on GPR17 [2] was less than 3.16 nM.
In the case of `COc1cc(C(F)(F)F)cnc1NS(=O)(=O)c1c[nH]c2cc(Cl)ccc12` [Compound I-344, 6-chloro-N-[3-methoxy-5-(trifluoromethyl)pyridin-2-yl]-1H-indole-3-sulfonamide], at GPR17 [1], the IC50 was 3.16 to 31.6 nM. On GPR17 [2], the Kb is 3.16 to 31.6 nM.
Consider `COc1nc(NS(=O)(=O)c2c[nH]c3cc(Cl)ccc23)c(F)cc1F` [Compound I-345, 6-chloro-N-(3,5-difluoro-6-methoxypyridin-2-yl)-1H-indole-3-sulfonamide], for which the IC50 on GPR17 [1] was 3.16 to 31.6 nM. Besides, on GPR17 [2], the Kb is 3.16 to 31.6 nM.
Take `COc1nc(NS(=O)(=O)c2coc3cc(Cl)ccc23)c(F)cc1Cl` [Compound I-346, 6-chloro-N-(5-chloro-3-fluoro-6-methoxypyridin-2-yl)-1-benzofuran-3-sulfonamide]: the IC50 on GPR17 [1] was 3.16 to 31.6 nM. In addition, the Kb at GPR17 [2] was 3.16 to 31.6 nM.
Take `O=S(=O)(Nc1cc(F)c(Cl)cc1F)c1c[nH]c2c(Cl)c(Br)ccc12` [Compound I-347, 6-bromo-7-chloro-N-(4-chloro-2,5-difluorophenyl)-1H-indole-3-sulfonamide]: at GPR17 [1], the IC50 was 3.16 to 31.6 nM. Besides, the Kb on GPR17 [2] is less than 3.16 nM.
In the same order, the values of `Cc1cc(F)c(NS(=O)(=O)c2c[nH]c3cc(Cl)ccc23)nc1F` [Compound I-348, 6-chloro-N-(3,6-difluoro-5-methylpyridin-2-yl)-1H-indole-3-sulfonamide] are less than 3.16 nM and 3.16 to 31.6 nM.
In the same order, the values of `COc1cc(Br)c(F)nc1NS(=O)(=O)c1c[nH]c2cc(Cl)ccc12` [Compound I-349, N-(5-bromo-6-fluoro-3-methoxypyridin-2-yl)-6-chloro-1H-indole-3-sulfonamide] are less than 3.16 nM and less than 3.16 nM.
In the case of `COc1cc(CC#N)c(F)nc1NS(=O)(=O)c1c[nH]c2cc(Cl)ccc12` [Compound I-350, 6-chloro-N-[5-(cyanomethyl)-6-fluoro-3-methoxypyridin-2-yl]-1H-indole-3-sulfonamide], at GPR17 [1], the IC50 is less than 3.16 nM. Also, the Kb on GPR17 [2] is less than 3.16 nM.
As for `COc1nc(NS(=O)(=O)c2c[nH]c3cc([N+](=O)[O-])ccc23)c(F)cc1CC#N` [Compound I-351, N-[5-(cyanomethyl)-3-fluoro-6-methoxypyridin-2-yl]-6-nitro-1H-indole-3-sulfonamide], the IC50 at GPR17 [1] was 3.16 to 31.6 nM. Besides, the Kb at GPR17 [2] was 3.16 to 31.6 nM.
For `COc1nc(NS(=O)(=O)c2c[nH]c3cc(N)ccc23)c(F)cc1CC#N` [Compound I-352, 6-amino-N-[5-(cyanomethyl)-3-fluoro-6-methoxypyridin-2-yl]-1H-indole-3-sulfonamide], the IC50 on GPR17 [1] was 3.16 to 31.6 nM. Besides, the Kb at GPR17 [2] was 3.16 to 31.6 nM.
For `COc1nc(NS(=O)(=O)c2c[nH]c3cc(N=[N+]=[N-])ccc23)c(F)cc1CC#N` [Compound I-353, 6-azido-N-[5-(cyanomethyl)-3-fluoro-6-methoxypyridin-2-yl]-1H-indole-3-sulfonamide], the IC50 on GPR17 [1] is less than 3.16 nM. Further, the Kb at GPR17 [2] is less than 3.16 nM.
For the molecule `COc1nc(NS(=O)(=O)c2c[nH]c3c(F)c(Cl)ccc23)c(F)cc1CC#N` [Compound I-354, 6-chloro-N-[5-(cyanomethyl)-3-fluoro-6-methoxypyridin-2-yl]-7-fluoro-1H-indole-3-sulfonamide], the IC50 at GPR17 [1] was less than 3.16 nM. Also, the Kb at GPR17 [2] was less than 3.16 nM.
Turning to `Cc1cc(F)c(NS(=O)(=O)c2c[nH]c3c(F)c(Cl)ccc23)nc1F` [Compound I-355, 6-chloro-N-(3,6-difluoro-5-methylpyridin-2-yl)-7-fluoro-1H-indole-3-sulfonamide], the IC50 on GPR17 [1] was less than 3.16 nM. For the same molecule, the Kb at GPR17 [2] was 3.16 to 31.6 nM.
In the case of `COc1ccc2c(S(=O)(=O)Nc3nc(OC)c(Cl)cc3F)c[nH]c2c1Cl` [Compound I-356, 7-chloro-N-(5-chloro-3-fluoro-6-methoxypyridin-2-yl)-6-methoxy-1H-indole-3-sulfonamide], the IC50 on GPR17 [1] was 3.16 to 31.6 nM. For the same molecule, the Kb on GPR17 [2] is 3.16 to 31.6 nM.
With `COc1nc(NS(=O)(=O)c2c[nH]c3c(Cl)c(F)ccc23)c(F)cc1Cl` [Compound I-357, 7-chloro-N-(5-chloro-3-fluoro-6-methoxypyridin-2-yl)-6-fluoro-1H-indole-3-sulfonamide], the IC50 at GPR17 [1] was 3.16 to 31.6 nM. The Kb at GPR17 [2] was 3.16 to 31.6 nM.
As for `COc1nc(NS(=O)(=O)c2c[nH]c3c(F)c(Cl)ccc23)c(F)cc1F` [Compound I-358, 6-chloro-N-(3,5-difluoro-6-methoxypyridin-2-yl)-7-fluoro-1H-indole-3-sulfonamide], the IC50 at GPR17 [1] is 3.16 to 31.6 nM. For the same molecule, on GPR17 [2], the Kb was 3.16 to 31.6 nM.
